Assay results as given in article PMC4186413, “Identification of metabolic pathways and enzyme systems involved in the in vitro human hepatic metabolism of dronedarone, a potent new oral antiarrhythmic drug” (Pharmacology Research & Perspectives, 2014).

Key:
Format in all cases: in vitro ADME
FMO-1, -3, and -5 = assay: Oxidation by recombinant human FMOs; settings: 1 mg/mL, 5 μmol/L, 30 min, NADPH
Description: (§1) Recombinant human CYPs (Supersomes™; BD Gentes, Woburn, MA: CYP1A1, CYP1A2, CYP2A6, CYP2B6, CYP2C8, CYP2C9, CYP2C18, CYP2C19, CYP2D6, CYP2E1, CYP3A4 and CYP3A5), FMOs (Supersomes™: FMO1, FMO3, FMO5), MAOs (Supersomes™: MAO-A and MAO-B), and UGTs (Supersomes™: UGT1A1, UGT1A3, UGT1A4, UGT1A6, UGT1A7, UGT1A8, UGT1A9, UGT1A10, UGT2B4, UGT2B7, UGT2B15, and UGT2B17) expressed in baculovirus-infected insect cells and control microsomes from insect cells infected with wild-type baculovirus were all obtained from BD Gentest (Woburn, MA).
(§2) For oxidative pathways, the assay mixture was composed of human liver microsomes (1 mg·m·L^−1) or microsomes of baculovirus-infected cells expressing human enzymes (100 pmol·mL^−1 for CYPs and 1 mg·mL^−1 for FMOs and MAOs), nicotinamide adenine dinucleotide phosphate reduced form (NADPH) (1 mmol/L), 100 mmol/L potassium phosphate (pH 7.4), and 5 μmol/L of the investigated compound dissolved in DMSO in a final volume of 500 μL.
(§3) The final concentration of DMSO in the reaction mixture was less than 1% (v/v). Initial rate conditions with respect to time and protein concentration for both the disappearance of unchanged drug and the formation of respective metabolites were established in preliminary studies. The enzyme reaction was initiated by addition of NADPH (10 mmol/L aqueous solution) to achieve a final concentration of 1 mmol/L for oxidative CYP- and FMO-dependent reactions or by the drug for MAO-dependent reactions, incubated at 37°C and stopped after 0–30 min by addition of one volume of ice-cold acetonitrile.
(§4) In human liver microsomes and recombinant isoforms, the percentage of metabolism was determined on the basis of unchanged drug disappearance, using the following equation [drawing 1] where UDt = 30 min represents the unchanged drug peak area after a 30-min incubation period and UDt = 0, the unchanged drug peak area at t = 0.
To identify the specific isoforms that are capable of oxidizing dronedarone and its metabolites, assays were performed using c-DNA-expressed isoforms belonging to CYP- (CYP1A1, -1A2, -2A6, -2B6, -C8, -2C9, -2C18, -2C19, -2D6, -2E1, -3A4, and -3A5), FMO- (FMO-1, -3, and -5) and MAO- (MAO-A and MAO-B) families.
Figure 5 Contribution of individual CYPs, FMOs and MAOs to the oxidation of dronedarone and its metabolites. Individual CYPs (100 pmol/mL), FMOs (1 mg/mL) and MAOs (1 mg/mL) were incubated with either dronedarone (A) or its metabolites, N-debutyl-dronedarone (B), propanoic acid-dronedarone (C), and phenol-dronedarone (D), at a concentration of 5 μmol/L, for 30 min at 37°C in the presence of NADPH, except for MAOs where incubations were performed in the absence of cofactor. Unchanged drugs were quantified by LC/MS-MS relative to the synthetic references as described in Materials and Methods. Data are expressed as the percentage of oxidation.

[1] = Oxidative metabolism by human hepatic microsomal fractions with or without NADPH; settings: 1 mg·mL^−1, 5 μmol/L, 30 min
Protocol: Human hepatic microsomal fractions were obtained from a large pool of human liver (150 individuals) prepared by BD Gentest-Biosciences (BD UltraPool™ HLM 150 – catalogue reference, 452118 Easy Count Box, Woburn, MA). This pooled human liver microsomal batch was also validated internally by the use of FDA-recommended CYP probes (FDA guidance for Industry, draft guidance February 2012).
as §2, §3
After removal of the proteins by centrifugation at 10,000 rpm for 10 min, a portion of the supernatant was analyzed by LC-UV-MS.
as §4
Dronedarone and its metabolites were incubated over 30 min with human hepatic microsomal fractions (1 mg·mL^−1) at a final concentration of 5 μmol/L, in the absence or the presence of 1 mmol/L NADPH, the cofactor for CYP- and FMO-dependent reactions.

[2] = tested on: UGT1A1, UGT1A3, UGT1A4, UGT1A6, UGT1A7, UGT1A8, UGT1A9, UGT1A10, UGT2B4, UGT2B7, UGT2B15, and UGT2B17; assay: Glucuronidation by the panel of recombinant human UGT isoforms; settings: 1 mg/mL, 5 μmol/L, 30 min, UDPGA
Description: as §1
For glucuronidation pathways, the assay mixture was composed of human liver microsomes (2 mg·mL^−1) or microsomes of baculovirus-infected cells expressing human UGTs (1 mg·mL^−1), uridine 5′-diphosphoglucuronic acid (UDPGA) (3 mmol/L), 100 mmol/L Tris HCl (pH 7.4) containing 5 mmol/L MgCl2 and 5 μmol/L of the investigated compound dissolved in DMSO in a final volume of 500 μL. The final concentration of DMSO in the reaction mixture was less than 1% (v/v). Initial rate conditions with respect to time and protein concentration for both the disappearance of unchanged drug and the formation of respective metabolites were established in preliminary studies. The microsomal mixture was first incubated for 10 min at 4°C in the presence of alamethicin (0.125 mg·mL^−1), then the reaction was initiated by addition of UDPGA (30 mmol/L aqueous solution) to achieve a final concentration of 3 mmol/L for UGT-dependent reactions, incubated at 37°C and stopped after 0–30 min by addition of one volume of ice-cold acetonitrile. […]
Figure 7 Contribution of individual UGTs to the glucuronidation of propanoic acid-dronedarone and phenol-dronedarone. […] Unchanged drugs were quantified by LC/MS-MS relative to the synthetic references as described in Materials and Methods. Data are expressed as the percentage of glucuronidation.

| Structure (SMILES) | Oxidation by FMOs (FMO-1, -3, and -5) | Parent drug metabolized by human hepatic microsomes ([1]; absence of NADPH) | Parent drug metabolized by human hepatic microsomes ([1]; presence of 1 mmol/L NADPH) | Glucuronidation by recombinant human UGT isoforms [2] |
| --- | --- | --- | --- | --- |
| CCCCN(CCCC)CCCOc1ccc(C(=O)O)cc1 [C-dealkyl-dronedarone] | not metabolized | No metabolism was observed | No metabolism was observed | No glucuronidation was observed |
| CCCCc1oc2ccc(NS(C)(=O)=O)cc2c1C(=O)c1ccc(OCCC(=O)O)cc1 [Propanoic acid-dronedarone] | Neither other CYPs, nor FMOs and MAOs metabolized propanoic acid-dronedarone to any significant extent | No metabolism occurred | 50% |  |
| CCCCNCCCOc1ccc(C(=O)c2c(CCCC)oc3ccc(NS(C)(=O)=O)cc23)cc1 [N-debutyl-dronedarone] | Neither other CYPs nor FMOs metabolized N-debutyl-dronedarone to any significant extent | 25–30% | 25–30% | No glucuronidation was observed |
| CCCCc1oc2ccc(NS(C)(=O)=O)cc2c1C(=O)c1ccc(OCCCN(CCCC)CCCC)cc1.Cl [Dronedarone, N-(2-Butyl-3-(4-(3-(dibutylamino)propoxy)benzoyl)-5-benzofuranyl)methanesulfonamide, hydrochloride] | not involved | not metabolized | ~60% | No glucuronidation was observed |
| CCCCc1oc2ccc(NS(C)(=O)=O)cc2c1C(=O)c1ccc(O)cc1 [Phenol-dronedarone] | contributed to a very small extent | very slow | very slow |  |
